As a reminder, the pIC50 is −log10 of the IC50, conventionally taken in molar units.

The target of assay [1] is IL-17A(FLAG-Tagged): IL-17RA(His-Tagged) (Homo sapiens, UniProt Q16552, K93Q). Briefly: IL-17A(FLAG-Tagged): IL-17RA(His-Tagged) Binding Disruption Eu-HTRF Assay. As to conditions: IL-17A/IL-17RA binding disruption, simple average if tested more than once. The method, boiled down:
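IC50 comes from a one-site competition fit of the HTRF 665/620 nm ratio. Compound dilutions (2-fold, 22 points) were held 1 h rt with FLAG-tagged IL-17A dimer, then His-tagged IL-17RA plus Eu-cryptate anti-FLAG and D2 anti-His antibodies were added for 2 h rt.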

Assay [2] has as its system IL-17A-induced G-CSF production in human normal keratinocyte (NHK). Description: NHK Assay: IL-17A-induced G-CSF production in human normal keratinocytes. Format: cell-based. As to conditions: Homo sapiens, Keratinocyte, 24 h, adult normal human keratinocytes, IL-17A 5 ng/mL, simple average if tested more than once. The method, boiled down: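 Adult NHK, 3000-4000 cells/well; rhIL-17A + titrated cpd preincubated 1 h rt, then onto cells. Final: IL-17A 5 ng/mL, DMSO 0.2%, 5% FBS. 24 h, 37° C. G-CSF in supernatant by HTRF vs standard curve; IC50. Viability by CellTiter-Glo vs DMSO.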

Structures are written as SMILES. pIC50: −log10 of the molar value.

Chain of UniProt Q16552 (Q16552 with tags, fused parts or gaps K93Q): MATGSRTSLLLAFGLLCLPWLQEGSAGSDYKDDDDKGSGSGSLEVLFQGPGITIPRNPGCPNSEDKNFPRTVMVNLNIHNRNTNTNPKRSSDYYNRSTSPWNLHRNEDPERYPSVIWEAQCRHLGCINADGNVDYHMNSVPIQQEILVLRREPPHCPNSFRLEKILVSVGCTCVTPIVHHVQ

Turning to `CC(C)n1nccc1C(=O)N[C@@H](COC(C)(C)C)c1cn2ncc([C@H](NC(=O)CC3CC(F)(F)C3)C3CC3)cc2n1` [Example 318, N—((R)-2-(tert-Butoxy)-1-(7-((R)-cyclopropyl(2-(3,3-difluorocyclobutyl)acetamido)methyl)imidazo[1,2-b]pyridazin-2-yl)ethyl)-1-isopropyl-1H-pyrazole-5-carboxamide], the pIC50 in assay [1] is 6.57; in assay [2] it was 6.32.
The like results for `CC(C)(C)OC[C@H](NC(=O)c1nonc1C1CC1)c1cn2ncc([C@H](NC(=O)CC3CC(F)(F)C3)C3CC3)cc2n1` [Example 319, N—((R)-2-(tert-Butoxy)-1-(7-((R)-cyclopropyl(2-(3,3-difluorocyclobutyl)acetamido)methyl)imidazo[1,2-b]pyridazin-2-yl)ethyl)-4-cyclopropyl-1,2,5-oxadiazole-3-carboxamide] were, in that order, 7.18 and 6.48.
Regarding `CC(C)n1nccc1C(=O)N[C@@H](COC(C)(C)C(F)(F)F)c1cn2ncc([C@H](NC(=O)CC3CC(F)(F)C3)C3CC3)cc2n1` [Example 320, N—((R)-1-(7-((R)-Cyclopropyl(2-(3,3-difluorocyclobutyl)acetamido)methyl)imidazo[1,2-b]pyridazin-2-yl)-2-((1,1,1-trifluoro-2-methylpropan-2-yl)oxy)ethyl)-1-isopropyl-1H-pyrazole-5-carboxamide], the pIC50 is 7.13 in assay [1] and 7.21 in assay [2].
For the molecule `CC(C)(OC[C@H](NC(=O)c1nonc1C1CC1)c1cn2ncc([C@H](NC(=O)CC3CC(F)(F)C3)C3CC3)cc2n1)C(F)(F)F` [Example 321, 4-Cyclopropyl-N—((R)-1-(7-((R)-cyclopropyl(2-(3,3-difluorocyclobutyl)acetamido)methyl)imidazo[1,2-b]pyridazin-2-yl)-2-((1,1,1-trifluoro-2-methylpropan-2-yl)oxy)ethyl)-1,2,5-oxadiazole-3-carboxamide], the pIC50 is 7.77 in assay [1] and 7.49 in assay [2].
For the molecule `CO[C@@H](C)[C@@H](NC(=O)CC1CC(F)(F)C1)c1cnn2cc([C@@H](NC(=O)c3ccnn3C(C)C)C3CCC(F)(F)CC3)nc2c1` [Example 322, N—((S)-(7-((1S,2S)-1-(2-(3,3-Difluorocyclobutyl)acetamido)-2-methoxypropyl)imidazo[1,2-b]pyridazin-2-yl)(4,4-difluorocyclohexyl)methyl)-1-isopropyl-1H-pyrazole-5-carboxamide], the pIC50 is 6.51 in assay [1] and 7.02 in assay [2].
Turning to `CO[C@@H](C)[C@@H](NC(=O)CC1CC(F)(F)C1)c1cnn2cc([C@@H](NC(=O)c3nonc3C)C3CCC(F)(F)CC3)nc2c1` [Example 323, N—((S)-(7-((1S,2S)-1-(2-(3,3-Difluorocyclobutyl)acetamido)-2-methoxypropyl)imidazo[1,2-b]pyridazin-2-yl)(4,4-difluorocyclohexyl)methyl)-4-methyl-1,2,5-oxadiazole-3-carboxamide], the pIC50 in assay [1] was 6.92; in assay [2], 6.17.
For `Cc1nonc1C(=O)N[C@H](c1cn2ncc([C@H](NC(=O)CCCC(F)F)C3CC3)cc2n1)C1CCC(F)(F)CC1` [Example 326, N—((S)-(7-((R)-Cyclopropyl(5,5-difluoropentanamido)methyl)imidazo[1,2-b]pyridazin-2-yl)(4,4-difluorocyclohexyl)methyl)-4-methyl-1,2,5-oxadiazole-3-carboxamide] the same measures were 6.92 and 5.96.
Turning to `Cc1nonc1C(=O)N[C@H](c1cn2ncc([C@H](NC(=O)COCC(F)(F)F)C3CC3)cc2n1)C1CCC(F)(F)CC1` [Example 327, N—((S)-(7-((R)-Cyclopropyl(2-(2,2,2-trifluoroethoxy)acetamido)methyl)imidazo[1,2-b]pyridazin-2-yl)(4,4-difluorocyclohexyl)methyl)-4-methyl-1,2,5-oxadiazole-3-carboxamide], the pIC50 in assay [1] was 6.70; in assay [2], 6.05.
With `Cc1nonc1C(=O)N[C@H](c1cn2ncc([C@H](NC(=O)C(C)(C)CC(F)F)C3CC3)cc2n1)C1CCC(F)(F)CC1` [Example 328, N—((S)-(7-((R)-Cyclopropyl(4,4-difluoro-2,2-dimethylbutanamido)methyl)imidazo[1,2-b]pyridazin-2-yl)(4,4-difluorocyclohexyl)methyl)-4-methyl-1,2,5-oxadiazole-3-carboxamide], the pIC50 in assay [1] is 5.62; in assay [2] it was less than 4.70.
Take `Cc1nonc1C(=O)N[C@H](c1cn2ncc([C@H](NC(=O)CO[C@@H](C)C(F)(F)F)C3CC3)cc2n1)C1CCC(F)(F)CC1` [Example 333, N—((S)-(7-((R)-Cyclopropyl(2-(((S)-1,1,1-trifluoropropan-2-yl)oxy)acetamido)methyl)imidazo[1,2-b]pyridazin-2-yl)(4,4-difluorocyclohexyl)methyl)-4-methyl-1,2,5-oxadiazole-3-carboxamide]: the results for the pIC50 in assay [1] and in assay [2] were 6.74 and 6.21, respectively.
For `CCC(F)(F)CC(=O)N[C@@H](c1cnn2cc([C@@H](NC(=O)c3nonc3C)C3CCC(F)(F)CC3)nc2c1)C1CC1` [Example 338, N—((S)-(7-((R)-Cyclopropyl(3,3-difluoropentanamido)methyl)imidazo[1,2-b]pyridazin-2-yl)(4,4-difluorocyclohexyl)methyl)-4-methyl-1,2,5-oxadiazole-3-carboxamide] the same measures were 6.44 and 5.70.
For the molecule `Cc1nonc1C(=O)N[C@H](c1cn2ncc([C@H](NC(=O)C(F)(F)CC3CC3)C3CC3)cc2n1)C1CCC(F)(F)CC1` [Example 339, N—((S)-(7-((R)-Cyclopropyl(3-cyclopropyl-2,2-difluoropropanamido)methyl)imidazo[1,2-b]pyridazin-2-yl)(4,4-difluorocyclohexyl)methyl)-4-methyl-1,2,5-oxadiazole-3-carboxamide], the negative logarithm of the IC50 (pIC50) is 7.11 in assay [1] and 6.72 in assay [2].
Consider `Cc1nonc1C(=O)N[C@H](c1cn2ncc([C@H](NC(=O)CO[C@H](C)C(F)(F)F)C3CC3)cc2n1)C1CCC(F)(F)CC1` [Example 357, N—((S)-(7-((R)-Cyclopropyl(2-(((R)-1,1,1-trifluoropropan-2-yl)oxy)acetamido)methyl)imidazo[1,2-b]pyridazin-2-yl)(4,4-difluorocyclohexyl)methyl)-4-methyl-1,2,5-oxadiazole-3-carboxamide], for which the negative logarithm of the IC50 (pIC50) in assay [1] is 6.02; in assay [2] it was 5.60.
In the case of `Nc1nonc1C(=O)N[C@H](c1cn2ncc([C@H](NC(=O)CCC(F)(F)F)C3CC3)cc2n1)C1CCC(F)(F)CC1` [Example 370, 4-Amino-N—((S)-(7-((R)-cyclopropyl(4,4,4-trifluorobutanamido)methyl)imidazo[1,2-b]pyridazin-2-yl)(4,4-difluorocyclohexyl)methyl)-1,2,5-oxadiazole-3-carboxamide], the pIC50 was 6.85 in assay [1] and 6.33 in assay [2].
On to `CC(C)(O)c1nonc1C(=O)N[C@H](c1cn2ncc([C@H](NC(=O)CCC(F)(F)F)C3CC3)cc2n1)C1CCC(F)(F)CC1` [Example 371, N—((S)-(7-((R)-Cyclopropyl(4,4,4-trifluorobutanamido)methyl)imidazo[1,2-b]pyridazin-2-yl)(4,4-difluorocyclohexyl)methyl)-4-(2-hydroxypropan-2-yl)-1,2,5-oxadiazole-3-carboxamide], for which the pIC50 in assay [1] was 6.85; in assay [2], 6.35.

The values above are taken from patent US11702422B2, “Imidazopyridazines as modulators of IL-17” (Janssen Pharmaceutica NV, priority 2020, dated 2023).
